Assay results from US9133195B2, “Quaternary ammonium salt compounds of spirocyclopiperazines, preparation methods and uses thereof” (Peking University, priority 2006, dated 2015).
Counter-ions that a name gives are not always drawn.

Assays:
[1] = test system: Kunming mice; experiment: Acetic acid-induced writhing test; type: in vivo; conditions: 31.0 umol/kg s.c., acetic acid i.p. after 30 min, writhing counted for 10 min; for inhibition in vivo at 31 µmol/kg: Mus musculus, sc
Method: Kunming mice, male and female in half, were randomly divided into groups with 8 mice in each group. The following groups were established: the normal saline (NS) control group, in which normal saline was administered by subcutaneous injection (s.c.); the test groups, in which 31.0 umol/kg quaternary ammonium salts compounds of piperazines of the present invention was administered by s.c. All drugs were dissolved in normal saline before use. The drug was injected at the dose of 0.1 ml/10 g. After 30 min, 0.2 ml of 0.6% acetic acid was injected intraperitoneally for each mouse. After 2˜3 min, the writhing reactions such as abdominal constriction, stretch of body and hind limbs, and hip raise occurred. Five minutes after acetic acid injection, the numbers of writhing was counted for 10 min. The percentage of inhibition was determined by using the following formula (1): Inhibition %=[(The numbers of writhing of control group−the numbers of writhing of drag injection group)/the numbers of writhing of control group]×100% (1) 2 Experimental Results
This experiment was carried out according to that of Example 36.

[2] = test system: mice; experiment: Function of motion coordination (rota-rod); type: in vivo; conditions: 2.0 mg/kg
Method: (§1) All the following tests were carried out by using compound LXM-10 according to the routine methods.
The effect of muscle-relaxed effect on the analgesic effect of LXM-10 was also excluded.

[3] = test system: mice; experiment: Spontaneous motion in mice; type: in vivo; conditions: 2.0 mg/kg
Method: as §1

[4] = Body temperature in mice; type: in vivo; conditions: 2.0 mg/kg
Method: as §1

8-(4-chloro-3-pyridyl)-5,8-diazaspiro[4.5]decane bromide [LXM-24]
Inhibition(%) of writhing [1]: 46%

c1ccc(N2CC[N+]3(CCCC3)CC2)cc1 (as salt: bromide) [LXM-18, 8-phenyl-5,8-diazaspiro[4.5]decane bromide]
melting point: 208 to 209 °C

COc1ccc(N2CC[N+]3(CCCC3)CC2)cc1 (as salt: bromide) [LXM-19, 8-(p-methoxyphenyl)-5,8-diazaspiro[4.5]decane bromide]
melting point: 201 to 203 °C

CC1CC[N+]2(CC1)CCN(CCc1ccccc1)CC2 (as salt: chloride) [LXM-6, 3-methyl-9-(β-phenylethyl)-6,9-diazaspiro[5.5]undecane chloride]
melting point: 230 °C (dec.)

C=CCN1CC[N+]2(CC1)CC(C)OC(C)C2 (stereo not shown) (as salt: chloride) [LXM-28, 2,4-dimethyl-9-allyl-3-oxo-6,9-diazaspiro[5.5]undecane chloride]
melting point: 236 °C (dec.)

CC1C[N+]2(CCN(C/C=C/c3ccccc3)CC2)CC(C)O1 (stereo not shown) (as salt: chloride) [LXM-30, 2,4-dimethyl-9-cinnamenyl-3-oxo-6,9-diazaspiro[5.5] undecane chloride]
melting point: 266 to 268 °C

CC1C[N+]2(CCN(CCc3ccccn3)CC2)CC(C)O1 (stereo not shown) (as salt: chloride) [LXM-31]
melting point: 247 °C

CN1C(=O)CN=C(c2ccccc2)c2cc(Cl)ccc21 [Diazepam, reference compound]
Time of falling down from rota-rod after treatment ([2]; 0.5 h): 48.8 ± 14.0 s | Time of falling down from rota-rod after treatment ([2]; 2.0 h): 73.3 ± 14.1 s | Time of falling down from rota-rod after treatment ([2]; 3.5 h): 111.7 ± 6.70 s | Time of falling down from rota-rod ([2]; before treatment): 102.5 ± 6.48 s | Numbers of movement after treatment ([3]; 0.5 h): 5.37 ± 1.64 | Numbers of movement after treatment ([3]; 2.0 h): 10.8 ± 3.10 | Numbers of movement after treatment ([3]; 3.5 h): 18.2 ± 3.61 | Numbers of movement ([3]; before treatment): 51.5 ± 5.15 | Rectal temperature after treatment ([4]; 0.5 h): 35.1 ± 0.26 °C | Rectal temperature after treatment ([4]; 2.0 h): 35.9 ± 0.35 °C | Rectal temperature after treatment ([4]; 3.5 h): 36.5 ± 0.31 °C | Rectal temperature ([4]; before treatment): 37.6 ± 0.17 °C

CC1CC[N+]2(CC1)CCN(CCc1ccccc1)CC2 [LXM-6, 3-methyl-9-(β-phenylethyl)-6,9-diazaspiro[5.5]undecane chloride]
inhibition in vivo at 31 µmol/kg [1]: 30%

CC1C[N+]2(CCN(CCc3cccc(F)c3)CC2)CC(C)O1 (stereo not drawn) [LXM-8, 2,4-dimethyl-9-β-(m-fluorophenyl)ethyl-3-oxo-6,9-diazaspiro[5.5]undecane chloride]
inhibition in vivo at 31 µmol/kg [1]: 55%

CC1C[N+]2(CCN(CCc3cccc([N+](=O)[O-])c3)CC2)CC(C)S1 (stereo not drawn) [LXM-9, 2,4-dimethyl-9-β-(m-nitrophenyl)ethyl-3-thio-6,9-diazaspiro[5.5]undecane chloride]
inhibition in vivo at 31 µmol/kg [1]: 62%

Clc1ccc(N2CC[N+]3(CCCC3)CC2)nn1 [LXM-11, 8-(4-chloro-2,3-pyridazinyl)-5,8-diazaspiro[4.5]decane chloride]
inhibition in vivo at 31 µmol/kg [1]: 44%

O=[N+]([O-])c1cccc(N2CC[N+]3(CCCC3)CC2)c1 [LXM-16, 8-(m-nitrophenyl)-5,8-diazaspiro[4.5]decane bromide]
inhibition in vivo at 31 µmol/kg [1]: 61%

c1ccc(N2CC[N+]3(CCCC3)CC2)cc1 [LXM-18, 8-phenyl-5,8-diazaspiro[4.5]decane bromide]
inhibition in vivo at 31 µmol/kg [1]: 20%

COc1ccc(N2CC[N+]3(CCCC3)CC2)cc1 [LXM-19, 8-(p-methoxyphenyl)-5,8-diazaspiro[4.5]decane bromide]
inhibition in vivo at 31 µmol/kg [1]: 56%

Oc1cccc(N2CC[N+]3(CCCC3)CC2)c1 [LXM-20, 8-(m-hydroxyphenyl)-5,8-diazaspiro[4.5]decane bromide]
inhibition in vivo at 31 µmol/kg [1]: 53%

Fc1cccc(N2CC[N+]3(CCCC3)CC2)c1 [LXM-21, 8-(m-fluorophenyl)-5,8-diazaspiro[4.5]decane bromide]
inhibition in vivo at 31 µmol/kg [1]: 47%

N#Cc1cccc(N2CC[N+]3(CCCC3)CC2)c1 [LXM-22, 8-(m-cyanophenyl)-5,8-diazaspiro[4.5]decane bromide]
inhibition in vivo at 31 µmol/kg [1]: 56%

CCOC(=O)c1cccc(N2CC[N+]3(CCCC3)CC2)c1 [LXM-23, 8-(m-ethoxycarbonylphenyl)-5,8-diazaspiro[4.5]decane bromide]
inhibition in vivo at 31 µmol/kg [1]: 39%

c1cncc(N2CC[N+]3(CCCC3)CC2)c1 [LXM-25, 8-(3-pyridyl)-5,8-diazaspiro[4.5]decane bromide]
inhibition in vivo at 31 µmol/kg [1]: 37%

C=CCN1CC[N+]2(CC1)CC(C)OC(C)C2 (stereo not shown) [LXM-28, 2,4-dimethyl-9-allyl-3-oxo-6,9-diazaspiro[5.5]undecane chloride]
inhibition in vivo at 31 µmol/kg [1]: 49%

CC1C[N+]2(CCN(C/C=C/c3ccccc3)CC2)CC(C)O1 (stereo not shown) [LXM-30, 2,4-dimethyl-9-cinnamenyl-3-oxo-6,9-diazaspiro[5.5] undecane chloride]
inhibition in vivo at 31 µmol/kg [1]: 43%

CC1C[N+]2(CCN(CCc3ccccn3)CC2)CC(C)O1 (stereo not shown) [LXM-31]
inhibition in vivo at 31 µmol/kg [1]: 58%
